From article PMC4045134, “Discovery of Triterpenoids as Reversible Inhibitors of α/β-hydrolase Domain Containing 12 (ABHD12)” (PLoS ONE, 2014)
“Also recorded” adds a separate entry of the source. Like-named read-outs stand apart in the source and are kept apart here.

Molecular target: T1, hABHD12 (Homo sapiens, UniProt Q8N2K0)
T1 construct: expressed in transfected cells; host or cells: HEK293 (transient)
T1 sequence (Q8N2K0 1-398): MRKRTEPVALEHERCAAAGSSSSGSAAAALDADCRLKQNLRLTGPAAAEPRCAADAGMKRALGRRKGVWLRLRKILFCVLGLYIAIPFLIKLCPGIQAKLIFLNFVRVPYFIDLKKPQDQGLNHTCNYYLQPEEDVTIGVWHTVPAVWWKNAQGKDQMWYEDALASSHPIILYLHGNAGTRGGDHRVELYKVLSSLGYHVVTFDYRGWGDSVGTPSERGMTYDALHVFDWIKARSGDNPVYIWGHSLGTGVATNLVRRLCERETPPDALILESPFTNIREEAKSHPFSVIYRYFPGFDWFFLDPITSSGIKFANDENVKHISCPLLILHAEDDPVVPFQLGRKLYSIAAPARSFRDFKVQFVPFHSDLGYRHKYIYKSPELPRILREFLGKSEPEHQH
Test: Fluorescent glycerol assay of 1-AG hydrolysis in hABHD12-HEK293 lysates
Assay type: biochemical
Conditions: for remaining activity at 10 µM: read-out: Remaining activity at 10 µM % ± s.e.m.; for inhibition at 10 µM: read-out: inhibition of hABHD12 at 10 µM; for Emax: read-out: max inhibition (converted)
Experimental: Glycerol liberated from 1-AG hydrolysis was determined with a sensitive fluorescent assay using lysates of HEK293 cells with transient overexpression of hABHD12, hABHD6 or hMAGL, essentially as previously described. […] Fluorescence (λex 530; λem 590 nm) was monitored using a Tecan Infinite M200 plate reader (Tecan Group Ltd., Männedorf, Switzerland). Inhibitory activities of selected compounds towards FAAH were determined using membranes of hFAAH overexpressing COS-7 cells, essentially as previously described. The final incubation volume (100 µL) contained 1 µg of protein and the substrate concentration was 20 µM (10 nM of ^3H-anandamide having specific activity of 60 Ci/mmol and concentration of 1 mCi/mL).

[1] = hABHD12-HEK293 lysates, 10 µM, NI = no inhibition
[2] = hABHD12-HEK293 lysates, three independent experiments, read-out: -logIC50±s.e.m. (converted)
[3] = hABHD12-HEK293 lysates, read-out: IC50

Structure (SMILES) | remaining activity at 10 µM [1] | also measured
C[C@H]1[C@H](C)CC[C@]2(C(=O)O)CC[C@]3(C)C(=CC[C@@H]4[C@@]5(C)C[C@@H](O)[C@H](O)[C@@](C)(CO)[C@@H]5CC[C@]43C)[C@H]12 [Compound 5, Asiatic acid, reference compound] | > 100% | hABHD12 inhibitory activity (in words): did not inhibit hABHD12; also recorded: completely devoid of activity
C=C(C)[C@@H]1CC[C@]2(C)CC[C@]3(C)[C@H](CC[C@@H]4[C@@]5(C)CC[C@H](O)C(C)(C)[C@@H]5CC[C@]43C)[C@@H]12 [Compound 3, Lupeol, reference compound] | > 100% | 
C=C(C)[C@@H]1CC[C@]2(C=O)CC[C@]3(C)[C@H](CC[C@@H]4[C@@]5(C)CC[C@H](O)C(C)(C)[C@@H]5CC[C@]43C)[C@@H]12 [Compound 16] | 71 ± 0.8% | inhibition at 10 µM: ~30%
C=C(C)[C@@H]1CC[C@]2(COC(=O)CCC(C)=O)CC[C@]3(C)[C@H](CC[C@@H]4[C@@]5(C)CC[C@H](O)C(C)(C)[C@@H]5CC[C@]43C)[C@@H]12 [Compound 27] | 85 ± 0.5% | 
C=C(C)[C@@H]1CC[C@]2(COC(=O)CCC(C)=O)CC[C@]3(C)[C@H](CC[C@@H]4[C@@]5(C)CC[C@H](OC(=O)CCC(C)=O)C(C)(C)[C@@H]5CC[C@]43C)[C@@H]12 [Compound 28] | > 100% | 
C[C@H]1[C@H](C)CC[C@]2(C)CC[C@]3(C)C(=CC[C@@H]4[C@@]5(C)CC[C@H](O)C(C)(C)[C@@H]5CC[C@]43C)[C@H]12 [Compound 6, α-Amyrin, reference compound] | > 100% | 
C=C(C)[C@@H]1CC[C@]2(COC3CCCCO3)CC[C@]3(C)[C@H](CC[C@@H]4[C@@]5(C)CC[C@H](O)C(C)(C)[C@@H]5CC[C@]43C)[C@@H]12 (stereo partly shown) [Compound 29] | > 100% | 
C=C(C)[C@@H]1CC[C@]2(C(=O)O)CC[C@]3(C)[C@H](CC[C@@H]4[C@@]5(C)Cc6ncccc6C(C)(C)[C@@H]5CC[C@]43C)[C@@H]12 [Compound 40, Lupa-2,20(29)-dieno[2,3-b]pyridin-28-oic acid] | 66 ± 1.1% | inhibition at 10 µM: 34%
C=C(C)[C@@H]1CC[C@]2(CO)CC[C@]3(C)[C@H](CC[C@@H]4[C@@]5(C)CC[C@H](OC(C)=O)C(C)(C)[C@@H]5CC[C@]43C)[C@@H]12 [Compound 30] | > 100% | 
COC(=O)[C@]1(C)CC[C@]2(C)CC[C@]3(C)C4=CC=C5C(=CC(=O)C(O)=C5C)[C@]4(C)CC[C@@]3(C)[C@@H]2C1 [Compound 15, Pristimerin, reference compound] |  | remaining activity at 10 µM: > 100%
C=C(C)[C@@H]1CC[C@]2(C(=O)O)CC[C@]3(C)[C@H](CC[C@@H]4[C@@]5(C)Cc6cccnc6C(C)(C)[C@@H]5CC[C@]43C)[C@@H]12 [Compound 41] |  | IC50 [2]: 6.61 µM; IC50 [3]: 6.7 µM; Emax (hABHD12-HEK293 lysates): 80%
C=C(C)[C@@H]1CC[C@]2(C(=O)O)CC[C@]3(C)[C@H](CC[C@@H]4[C@@]5(C)Cc6nccnc6C(C)(C)[C@@H]5CC[C@]43C)[C@@H]12 [Compound 42] |  | IC50 [2]: 3.55 µM; IC50 [3]: 3.6 µM; Emax (hABHD12-HEK293 lysates): 56%
C=C(C)[C@@H]1CC[C@]2(C(=O)O)CC[C@]3(C)[C@H](CC[C@@H]4[C@@]5(C)Cc6c[nH]nc6C(C)(C)[C@@H]5CC[C@]43C)[C@@H]12 [Compound 37] |  | IC50 [2]: 1.45 µM; Emax (hABHD12-HEK293 lysates): 100%
CC1(C)CC[C@]2(C(=O)O)CC[C@]3(C)C(=CC[C@@H]4[C@@]5(C)CC[C@H](O)[C@@](C)(CO)[C@@H]5CC[C@]43C)[C@@H]2C1 [Compound 9, Hederagenin, reference compound] | 78 ± 3% | hABHD12 inhibitory activity (in words): did not inhibit hABHD12
C=C(C)[C@@H]1CC[C@]2(C(=O)O)CC[C@]3(C)[C@H](CC[C@@H]4[C@@]5(C)CC(O)C(O)C(C)(C)[C@@H]5CC[C@]43C)[C@@H]12 (stereo partly drawn) [Compound 32, 2β,3β-Dihydroxylup-20(29)-en-28-oic acid] |  | IC50 [2]: 3.72 µM; Emax (hABHD12-HEK293 lysates): 100%
COC(=O)[C@]12CCC(C)(C)C[C@H]1[C@H]1C(=O)C=C3[C@@]4(C)C=C(C#N)C(=O)C(C)(C)[C@@H]4CC[C@@]3(C)[C@]1(C)CC2 [Compound 13, CDDO methyl ester, reference compound] | > 100% | 
C=C(C)[C@@H]1CC[C@]2(C(=O)N3CCCC3)CC[C@]3(C)[C@H](CC[C@@H]4[C@@]5(C)CCC(=O)C(C)(C)[C@@H]5CC[C@]43C)[C@@H]12 [Compound 21] | 80 ± 0.3% | 
C=C(C)[C@@H]1CC[C@]2(C(=O)NCCC)CC[C@]3(C)[C@H](CC[C@@H]4[C@@]5(C)CCC(=O)C(C)(C)[C@@H]5CC[C@]43C)[C@@H]12 [Compound 20] | 84 ± 1.5% | 
CC1(C)CC[C@]2(C(=O)O)CC[C@]3(C)C(=CC[C@@H]4[C@@]5(C)CC[C@H](O)C(C)(C)[C@@H]5CC[C@]43C)[C@@H]2C1 [Compound 7, Oleanolic acid, reference compound] | ~20% | 
C=C(C)[C@@H]1CC[C@]2(C=O)CC[C@]3(C)[C@H](CC[C@@H]4[C@@]5(C)Cc6cnoc6C(C)(C)[C@@H]5CC[C@]43C)[C@@H]12 [Compound 38] | 84 ± 1.6% | hABHD12 inhibitory activity (in words): poor inhibitory activity; also recorded: complete loss of the inhibitory activity
CC(C)[C@@]12CC[C@]3(CO)CC[C@]4(C)C(=C31)C(C[C@@H]1[C@@]3(C)CC[C@H](O)C(C)(C)[C@@H]3CC[C@]14C)n1c(=O)n(-c3ccccc3)c(=O)n12 (stereo partly shown) [Compound 39] | 86 ± 0.4% | 
CC1=C(O)C(=O)C=C2C1=CC=C1[C@@]2(C)CC[C@@]2(C)[C@@H]3C[C@](C)(C(=O)O)CC[C@]3(C)CC[C@]12C [Compound 14, Celastrol, reference compound] | > 100% | 
CC1(C)CC[C@]2(C)CC[C@]3(C)C(=CC[C@@H]4[C@@]5(C)CC[C@H](O)C(C)(C)[C@@H]5CC[C@]43C)[C@@H]2C1 [Compound 10, β-Amyrin, reference compound] | > 100% | 
C=C(C)[C@@H]1CC[C@]2(C(N)=O)CC[C@]3(C)[C@H](CC[C@@H]4[C@@]5(C)Cc6nccnc6C(C)(C)[C@@H]5CC[C@]43C)[C@@H]12 [Compound 43] | 69 ± 0.8% | 
C=C(C)[C@@H]1CC[C@]2(COC(=O)/C=C/c3ccccc3)CC[C@]3(C)[C@H](CC[C@@H]4[C@@]5(C)CC[C@H](O)C(C)(C)[C@@H]5CC[C@]43C)[C@@H]12 [Compound 26] | > 100% | 
C=C(C)[C@@H]1CC[C@]2(CO)CC[C@]3(C)[C@H](CC[C@@H]4[C@@]5(C)CC[C@H](O)C(C)(C)[C@@H]5CC[C@]43C)[C@@H]12 [Compound 2, Betulin, reference compound] | ~75% | 
